In ChEMBL document CHEMBL3885881, “DrugMatrix”:

Organism: Rattus norvegicus
Test: DrugMatrix - Regimen: Daily Repeat
Type: toxicity, organism-based, Sprague-Dawley
Design: regimen Daily Repeat, gender Male, age 6-8 weeks
Conditions: in vivo, po, 72 h, route oral GAVAGE, time 3 day, vehicle .5 % CMC; for ABSOLUTE BASOPHIL / ABSOLUTE EOSINOPHIL / ABSOLUTE LYMPHOCYTE / ABSOLUTE MONOCYTE / ABSOLUTE SEGMENTED NEUTROPHIL / BASOPHIL / EOSINOPHIL / ERYTHROCYTE COUNT / HEMATOCRIT / HEMOGLOBIN / LEUKOCYTE COUNT / LYMPHOCYTE / MEAN CORPUSCULAR HEMOGLOBIN / MEAN CORPUSCULAR HEMOGLOBIN CONCENTRATION / MONOCYTE / NUCLEATED RED BLOOD CELLS / PLATELET COUNT / NEUTROPHIL: tissue Blood
[1] = 0 mg/kg, tissue Plasma, dose level Control
[2] = 33 mg/kg, tissue Plasma, dose level High
[3] = […], dose 3.3 mg/Kg, dose level Low
[4] = […], tissue Plasma, dose 3.3 mg/Kg, dose level Low

AURANOFIN
ABSOLUTE BASOPHIL (0 mg/kg, dose level Control): 0 CELLS/uL
ABSOLUTE EOSINOPHIL (0 mg/kg, dose level Control): 8.83 CELLS/uL
ABSOLUTE LYMPHOCYTE (0 mg/kg, dose level Control): 7222.33 CELLS/uL
ABSOLUTE MONOCYTE (0 mg/kg, dose level Control): 0 CELLS/uL
ABSOLUTE SEGMENTED NEUTROPHIL (0 mg/kg, dose level Control): 752.17 CELLS/uL
BASOPHIL (0 mg/kg, dose level Control): 0%
EOSINOPHIL (0 mg/kg, dose level Control): 0.17%
ERYTHROCYTE COUNT (0 mg/kg, dose level Control): 5.22 x10E6/uL
HEMATOCRIT (0 mg/kg, dose level Control): 32.6%
HEMOGLOBIN (0 mg/kg, dose level Control): 12.43 G/DL
LEUKOCYTE COUNT (0 mg/kg, dose level Control): 7.98 x10E3/uL
LYMPHOCYTE (0 mg/kg, dose level Control): 91.17%
MEAN CORPUSCULAR HEMOGLOBIN (0 mg/kg, dose level Control): 23.87 pg
MEAN CORPUSCULAR HEMOGLOBIN CONCENTRATION (0 mg/kg, dose level Control): 38.18 G/DL
MONOCYTE (0 mg/kg, dose level Control): 0%
NUCLEATED RED BLOOD CELLS (0 mg/kg, dose level Control): 0 /100WBC
PLATELET COUNT (0 mg/kg, dose level Control): 1082.33 x10E3/uL
ALANINE AMINOTRANSFERASE [1]: 42.17 u/L
ALKALINE PHOSPHATASE [1]: 451.17 u/L
ASPARTATE AMINOTRANSFERASE [1]: 76.17 u/L
BLOOD UREA NITROGEN [1]: 13.33 mg/dL
CARBON DIOXIDE [1]: 31.67 mmol/L
CHLORIDE [1]: 96.5 MEQ/L
CHOLESTEROL [1]: 78 mg/dL
CREATINE PHOSPHOKINASE [1]: 216.5 u/L
CREATININE [1]: 0.22 mg/dL
GLUCOSE [1]: 137 mg/dL
LACTATE DEHYDROGENASE [1]: 138.5 u/L
PHOSPHORUS [1]: 12.68 mg/dL
POTASSIUM [1]: 6.23 MEQ/L
TOTAL BILIRUBIN [1]: 0.15 mg/dL
TOTAL PROTEIN [1]: 6.33 G/DL
URIC ACID [1]: 1.1 mg/dL
ABSOLUTE BASOPHIL (33 mg/kg, dose level High): 0 CELLS/uL
ABSOLUTE EOSINOPHIL (33 mg/kg, dose level High): 19 CELLS/uL
ABSOLUTE LYMPHOCYTE (33 mg/kg, dose level High): 6925.33 CELLS/uL
ABSOLUTE MONOCYTE (33 mg/kg, dose level High): 0 CELLS/uL
ABSOLUTE SEGMENTED NEUTROPHIL (33 mg/kg, dose level High): 722.33 CELLS/uL
BASOPHIL (33 mg/kg, dose level High): 0%
EOSINOPHIL (33 mg/kg, dose level High): 0.33%
ERYTHROCYTE COUNT (33 mg/kg, dose level High): 5.07 x10E6/uL
HEMATOCRIT (33 mg/kg, dose level High): 31.53%
HEMOGLOBIN (33 mg/kg, dose level High): 12.07 G/DL
LEUKOCYTE COUNT (33 mg/kg, dose level High): 7.67 x10E3/uL
LYMPHOCYTE (33 mg/kg, dose level High): 90.67%
MEAN CORPUSCULAR HEMOGLOBIN (33 mg/kg, dose level High): 23.77 pg
MEAN CORPUSCULAR HEMOGLOBIN CONCENTRATION (33 mg/kg, dose level High): 38.27 G/DL
MONOCYTE (33 mg/kg, dose level High): 0%
NEUTROPHIL (33 mg/kg, dose level High): 9%
NUCLEATED RED BLOOD CELLS (33 mg/kg, dose level High): 0 /100WBC
PLATELET COUNT (33 mg/kg, dose level High): 1030 x10E3/uL
ALANINE AMINOTRANSFERASE [2]: 55.67 u/L
ALBUMIN [2]: 3.8 G/DL
ALKALINE PHOSPHATASE [2]: 342.67 u/L
ASPARTATE AMINOTRANSFERASE [2]: 80.33 u/L
BLOOD UREA NITROGEN [2]: 13.33 mg/dL
CARBON DIOXIDE [2]: 31.67 mmol/L
CHOLESTEROL [2]: 93.33 mg/dL
CREATINE PHOSPHOKINASE [2]: 251.67 u/L
CREATININE [2]: 0.18 mg/dL
GLUCOSE [2]: 139 mg/dL
LACTATE DEHYDROGENASE [2]: 122 u/L
SODIUM [2]: 153.7 MEQ/L
TOTAL BILIRUBIN [2]: 0.2 mg/dL
TOTAL PROTEIN [2]: 5.87 G/DL
URIC ACID [2]: 1.13 mg/dL
ABSOLUTE BASOPHIL [3]: 0 CELLS/uL
ABSOLUTE EOSINOPHIL [3]: 46.33 CELLS/uL
ABSOLUTE LYMPHOCYTE [3]: 6434 CELLS/uL
ABSOLUTE MONOCYTE [3]: 30 CELLS/uL
ABSOLUTE SEGMENTED NEUTROPHIL [3]: 1123 CELLS/uL
BASOPHIL [3]: 0%
EOSINOPHIL [3]: 0.67%
ERYTHROCYTE COUNT [3]: 5.02 x10E6/uL
HEMATOCRIT [3]: 31.27%
HEMOGLOBIN [3]: 11.83 G/DL
LEUKOCYTE COUNT [3]: 7.63 x10E3/uL
LYMPHOCYTE [3]: 84.33%
MEAN CORPUSCULAR HEMOGLOBIN [3]: 23.57 pg
MEAN CORPUSCULAR HEMOGLOBIN CONCENTRATION [3]: 37.83 G/DL
MONOCYTE [3]: 0.33%
NEUTROPHIL [3]: 14.67%
NUCLEATED RED BLOOD CELLS [3]: 0.33 /100WBC
PLATELET COUNT [3]: 1052.33 x10E3/uL
ALANINE AMINOTRANSFERASE [4]: 42.33 u/L
ALBUMIN [4]: 4.1 G/DL
ALKALINE PHOSPHATASE [4]: 371 u/L
ASPARTATE AMINOTRANSFERASE [4]: 73 u/L
BLOOD UREA NITROGEN [4]: 13 mg/dL
CARBON DIOXIDE [4]: 33 mmol/L
CHLORIDE [4]: 97 MEQ/L
CHOLESTEROL [4]: 76.67 mg/dL
CREATINE PHOSPHOKINASE [4]: 140 u/L
CREATININE [4]: 0.18 mg/dL
GLUCOSE [4]: 143 mg/dL
LACTATE DEHYDROGENASE [4]: 96 u/L
LIPASE [4]: 8.33 u/L
POTASSIUM [4]: 6.12 MEQ/L
SODIUM [4]: 145.6 MEQ/L
TOTAL BILIRUBIN [4]: 0.17 mg/dL
TOTAL PROTEIN [4]: 6.17 G/DL
URIC ACID [4]: 1 mg/dL
